Measurements published in ChEMBL document CHEMBL1821572, “Discovery of a novel series of selective HCN1 blockers” (Bioorg Med Chem Lett, 2011).

Assays:
Mus musculus [1] = species: Mus musculus; test: Toxicity in C57BL/6 mouse assessed as induction of bradycardia after 50 mins by ECG study; type: organism-based; conditions: in vivo
Mus musculus [2] = test: Antiallodynic activity in ip dosed C57BL/6 mouse spared-nerve injury model assessed as reduction of tactile allodynia after 60 mins; type: functional; conditions: C57BL/6, ip, 1 h
[3] = biological target: T1, Potassium/sodium hyperpolarization-activated cyclic nucleotide-gated channel 1 (Homo sapiens, UniProt O60741); test: Inhibition of human HCN1 heterologously expressed in HEK-293 cells after 30 mins by VIPR assay; type: cell-based, HEK293
T1 sequence (O60741 whole entry): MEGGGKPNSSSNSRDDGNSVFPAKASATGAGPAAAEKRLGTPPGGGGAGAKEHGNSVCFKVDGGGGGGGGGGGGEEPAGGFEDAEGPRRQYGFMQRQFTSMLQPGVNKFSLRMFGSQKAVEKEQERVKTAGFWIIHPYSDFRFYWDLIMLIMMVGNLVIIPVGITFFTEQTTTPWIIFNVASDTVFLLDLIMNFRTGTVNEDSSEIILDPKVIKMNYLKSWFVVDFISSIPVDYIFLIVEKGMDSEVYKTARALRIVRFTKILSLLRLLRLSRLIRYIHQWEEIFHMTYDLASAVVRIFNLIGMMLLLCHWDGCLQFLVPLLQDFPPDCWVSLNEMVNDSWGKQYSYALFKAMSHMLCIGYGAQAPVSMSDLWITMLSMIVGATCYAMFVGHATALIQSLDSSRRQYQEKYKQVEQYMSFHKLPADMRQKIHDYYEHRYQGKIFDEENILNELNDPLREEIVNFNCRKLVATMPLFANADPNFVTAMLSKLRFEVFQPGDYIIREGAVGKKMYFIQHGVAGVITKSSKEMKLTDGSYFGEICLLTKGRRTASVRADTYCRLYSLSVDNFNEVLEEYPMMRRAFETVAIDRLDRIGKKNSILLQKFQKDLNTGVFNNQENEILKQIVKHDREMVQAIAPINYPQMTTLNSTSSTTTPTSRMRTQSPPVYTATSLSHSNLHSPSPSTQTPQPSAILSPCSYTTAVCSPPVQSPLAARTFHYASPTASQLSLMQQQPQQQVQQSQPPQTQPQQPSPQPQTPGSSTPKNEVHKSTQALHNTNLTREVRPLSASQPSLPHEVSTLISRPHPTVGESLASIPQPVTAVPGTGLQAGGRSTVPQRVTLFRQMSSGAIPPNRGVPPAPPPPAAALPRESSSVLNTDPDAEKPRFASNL

[4] = biological target: T2, Potassium/sodium hyperpolarization-activated cyclic nucleotide-gated channel 2 (Homo sapiens, UniProt Q9UL51); test: Inhibition of human HCN2 heterologously expressed in HEK-293 cells after 30 mins by VIPR assay; type: cell-based, HEK293
T2 sequence (Q9UL51 whole entry): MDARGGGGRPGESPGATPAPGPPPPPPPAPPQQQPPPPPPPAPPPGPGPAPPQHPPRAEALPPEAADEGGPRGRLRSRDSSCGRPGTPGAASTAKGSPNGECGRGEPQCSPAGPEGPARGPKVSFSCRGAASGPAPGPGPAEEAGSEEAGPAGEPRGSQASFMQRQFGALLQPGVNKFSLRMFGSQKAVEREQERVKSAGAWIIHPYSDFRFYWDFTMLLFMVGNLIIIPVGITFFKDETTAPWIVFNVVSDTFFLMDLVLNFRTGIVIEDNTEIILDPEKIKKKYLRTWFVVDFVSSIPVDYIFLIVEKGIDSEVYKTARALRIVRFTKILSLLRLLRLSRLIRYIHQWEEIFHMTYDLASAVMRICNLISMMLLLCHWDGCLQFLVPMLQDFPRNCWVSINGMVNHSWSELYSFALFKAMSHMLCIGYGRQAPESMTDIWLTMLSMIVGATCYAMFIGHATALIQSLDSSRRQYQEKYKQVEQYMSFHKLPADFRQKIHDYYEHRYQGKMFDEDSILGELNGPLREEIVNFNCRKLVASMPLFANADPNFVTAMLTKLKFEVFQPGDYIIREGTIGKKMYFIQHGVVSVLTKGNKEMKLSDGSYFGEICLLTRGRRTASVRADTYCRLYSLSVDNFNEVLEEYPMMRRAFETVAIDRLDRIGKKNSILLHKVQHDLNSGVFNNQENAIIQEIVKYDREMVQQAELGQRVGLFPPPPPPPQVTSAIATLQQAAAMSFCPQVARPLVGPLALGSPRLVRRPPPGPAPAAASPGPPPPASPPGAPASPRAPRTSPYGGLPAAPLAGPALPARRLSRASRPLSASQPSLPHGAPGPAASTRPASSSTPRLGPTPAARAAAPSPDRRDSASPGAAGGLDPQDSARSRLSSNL

[5] = Half life in human liver microsomes; type: ADME, Microsome
Homo sapiens = species: Homo sapiens; test: Selectivity for human HCN1 over human HCN4

CCOc1ccccc1C(=O)NCC1(N2CCNCC2)CCCCC1 gave an ED20 (Mus musculus [1]) of 25 mg/kg, an ED50 (Mus musculus [2]) of 6 mg/kg and an IC50 [3] of 398 nM. It also gave an IC50 [4] of 5010 nM, a half-life [5] of 3.92 h and a Selectivity ratio (Homo sapiens) of 10.
